What was measured:
[1] = test system: H. pylori; assay: CLO score after the CLO test; format: in vivo, C57BL/6 mouse; conditions: for CLO score: 28 days, score 0-3, control G3 2.10
Method: (§1) In order to compare the Helicobacter pylori eradiation effect between beta-caryophyllene and the antibiotics that are used for treatment of Helicobacter pylori infection, an animal test was performed using the test groups and doses shown in Table 1 below.
(§2) Each test substance was suspended in an excipient according to the dose and administered to each mouse once a day at the same time every day for a total of 28 days in a dose of 5 ml per kg mouse (C57BL/6 mouse) by oral gavage method.
The mean and standard deviation of each group were calculated, and the difference between the values of the groups was compared, and the results are shown in Table 3 below.

[2] = test system: CagA, VacA and SecA proteins; assay: Western blotting of H. pylori toxins CagA, VacA and SecA; format: cell-based, Helicobacter pylori; conditions: 125, 250 and 500 μg/ml, 3 days culture
Method: To evaluate the effect of beta-caryophyllene treatment on the production of toxins secreted by Helicobacter pylori, Helicobacter pylori was treated with beta-caryophyllene, and then the amounts of CagA, VacA and SecA proteins were analyzed by Western blotting.
For Western blotting, samples obtained by treating Helicobacter pylori with beta-caryophyllene at concentrations of 0, 125, 250 and 500 μg/ml and culturing the treated Helicobacter pylori for 3 days were lysed with RIPA lysis buffer (Millipore) on ice for 30 minutes and then centrifuged. The supernatants were collected, and then proteins therein were quantified using a spectrophotometer (Infinite M200, TECAN).
Equal amounts of protein samples were loaded and electrophoresed on 10% SDS polyacrylamide gel, and the protein fractions were transferred to nitrocellulose membranes (PALL) and reacted with CagA (mouse monoclonal IgG antibody, Santa Cruz), VacA (rabbit polyclonal IgG antibody, Santa Cruz), SecA (rabbit polyclonal IgG antibody, produced by the applicant) and anti-Helicobacter pylori (rabbit polyclonal IgG antibody, produced by the applicant) antibodies at 4° C. for 16 hours. After completion of the primary antibody reaction, secondary blocking (1 hr/RT) was performed. As secondary antibodies, donkey anti-rabbit IgG-HRP, donkey anti-mouse IgG-HRP or donkey anti-goat IgG-HRP (Santa Cruz) was used depending on the primary antibody. The reaction products were treated by an enhanced chemiluminescence kit (Thermo), and then analyzed by Chemidoc (Fusion solo, Vilber Lourmat).

[3] = test system: Helicobacter pylori 16S rRNA; assay: qPCR test for gastric mucosal Helicobacter pylori (16S rRNA); format: in vivo, C57BL/6 mouse; conditions: for Gene expression level (Ct): 28 days, 16S rRNA vs 18SrRNA, control G3 13.80
Method: as §1, §2
After completion of the test, RNA was collected from the aseptically collected gastric mucosal tissue, and then synthesized into DNA to perform a PCR test. The marker gene used in this experiment was 16S rRNA, which is specifically found only in H. pylori and is not found in humans or mice. 18SrRNA was used as a loading control gene of the used DNA sample. The Ct value for each gene was obtained by reacting the fluorescent intercalator SYBR Green with the corresponding primer and DNA, and then calculated by relative quantification, and the results are shown in Table 4 below.

[4] = test system: Helicobacter pylori; assay: RT-PCR of H. pylori-specific 16S rRNA in stomach tissue of infected animals; format: in vivo, Mongolian gerbils; conditions: groups treated with 100 mg/kg and 500 mg/kg
Method: Mongolian gerbils were infected with a Helicobacter pylori strain (ATCC 49503) and then subjected to two weeks of acclimatization. To this end, the animals were fasted for 12 hours before and after inoculation with the Helicobacter pylori strain. 500 μl (1×10^9 CFU) of a bacterial suspension was prepared by suspending H. pylori in sterile physiological saline to a concentration of 2×10^9 CFU/ml and introduced directly into the stomach by using a feeding needle. For stable infection, the H. pylori strain was dispensed three times at 48 hour-intervals.
Beta-caryophyllene was administered directly into the gastrointestinal at doses of 100 mg/kg and 500 mg/kg for the low and high dose groups, respectively, for 12 weeks after two weeks after infection with H. pylori. The same amount of corn oil as the beta-caryophyllene was administered to each of the non-infected group and the infected group.
To confirm H. pylori infection, the stomach tissues of the four animal groups prepared in the H. pylori-infected animal preparation process shown in Experimental Example 2 were subjected to RT-PCR in order to examine whether H. pylori-specific 16S rRNA would be detected.

[5] = test system: virB2, virB4, virB5, virB6, virB7, virB8, virB9, virB10 and virD4 genes; assay: RT-PCR of type IV secretion system (T4SS) genes; format: cell-based, Helicobacter pylori; conditions: 31.25-500 μg/ml
Method: In order to evaluate the inhibitory effect of beta-caryophyllene against the CagA toxin injection ability of Helicobacter pylori, expression of virB2, virB4, virB5, virB6, virB7, virB8, virB9, virB10 and virD4 genes associated with the type IV secretion system (T4SS) structure required to inject the CagA toxin into a host cell was analyzed, and the results are shown in FIG. 11. Specifically, Helicobacter pylori was treated with beta-caryophyllene at concentrations of 31.25, 62.5, 125, 250 and 500 μg/ml, and expression of the genes was analyzed by RT-PCR.

[6] = test system: H. pylori; assay: Gastric rapid urease test (CLO test), therapeutic rate; format: in vivo, C57BL/6 mouse; conditions: oral gavage, 28 days, control G3 30%
Method: as §1, §2
The rapid urease test is based on the principle according to which, when H. pylori is present in gastric mucosa, the bacteria produce ammonia by secreting urease while proliferating in a medium containing a test reagent and a pH indicator, and a change in the color of the pH indicator is examined.
The gastric mucosal tissue extracted on the day of the autopsy was collected aseptically and tested using a Campylobacter-like organism (CLO) test reagent. The tissue was incubated in an incubator at 37° C. for 2 hours, the resulting color changed from yellow to red, the sample was judged as positive. The number of mice determined to be positive was calculated as a percentage, and the therapeutic rate for H. pylori eradication by sample treatment was obtained using the following equation, and the results are shown in Table 2 below.
Therapeutic rate (%)=(number of samples−number of positive samples)/number of samples×100

[7] = G6: 100 mg/kg/day, not statistically significant
[8] = G7: 200 mg/kg/day, not statistically significant
[9] = G8: 500 mg/kg/day, statistically significant

C=C1CC/C=C(\C)CC[C@@H]2[C@@H]1CC2(C)C [beta-caryophyllene]
CLO score ([1]; G6: 100 mg/kg/day): 1.2
decrease of CLO score compared to G3 [1, 7]: 42.9%
CLO score ([1]; G7: 200 mg/kg/day): 1.11
decrease of CLO score compared to G3 [1, 8]: 47.1%
CLO score ([1]; G8: 500 mg/kg/day): 0.5
decrease of CLO score compared to G3 [1, 9]: 76.2%
secretion of CagA (Western blot) [2]: inhibited
secretion of SecA (Western blot) [2]: inhibited
secretion of VacA (Western blot) [2]: inhibited
Gene expression level (Ct) ([3]; G6: 100 mg/kg/day): 11.99 Ct
decrease of Ct value compared to G3 [3, 7]: 13.1%
Gene expression level (Ct) ([3]; G7: 200 mg/kg/day): 9.40 Ct
decrease of Ct value compared to G3 [3, 8]: 31.9%
Gene expression level (Ct) ([3]; G8: 500 mg/kg/day): 5.71 Ct
decrease of Ct value compared to G3 [3, 9]: 58.6%
Helicobacter pylori eradication rate ([4]; first value, week 6 (or 100 mg/kg; wording ambiguous)): 90.4%
Helicobacter pylori eradication rate ([4]; second value, week 12 (or 500 mg/kg; wording ambiguous)): 95.8%
expression of virB2 gene [5]: significantly decreased
expression of virB4 gene [5]: significantly decreased
expression of virB8 gene [5]: significantly decreased
Therapeutic % ([6]; G6: 100 mg/kg/day): 60%
Therapeutic % ([6]; G7: 200 mg/kg/day): 56%
Therapeutic % ([6]; G8: 500 mg/kg/day): 80%
